The record followed here is patent US20190298717A1 (BOARD OF REGENTS, THE UNIVERSITY OF TEXAS SYSTEM, priority 2016, published 2019).

Assay [1] deals with SH-SY5Y cells. The assay can be described thus: H2O2-EC50 of hydralazine and its analogs (protection from H2O2 stress). The assay is classed as cell-based. The following applies: Homo sapiens. As to the method: To generate intracellular aldehydes, the inventors treated human neuroblastoma cell line (SH-SY5Y) with 100 μM hydrogen peroxide (H2O2) for 24 h. Carbonyl groups were quantified using 2,4-DNPH (dinitrophenylhydrazine) assay.
Cell Viability and Cytotoxicity Assay. Cell growth was analyzed using the MTT cell viability assay. Briefly, at the end of incubation/treatment, MTT reagent was diluted in culture medium and aliquoted into each well. After incubation for 2 hours, the medium was aspirated and DMSO was aliquoted into each well to disrupt the cells and dissolve the intracellular MTT dyes. Absorbance was read at 570 nm wavelength in a 96-well plate reader. Cell toxicity was detected using a LDH cell toxicity assay kit (Promega, Fitchburg Wis.). This is a coupled enzymatic assay that detects a visible color signal initially described by Nachlas et. al. The reagent contained excess concentrations of lactate and NAD+as substrates to drive the LDH reaction and produce NADH. In the presence of diaphorase, NADH drives the enzyme-catalyzed conversion of iodonitro-tetrazolium violet to a red formazan product. Briefly, DMEM medium was withdrawn from each well of the plate after treatment and briefly centrifuged to get rid of floating cells or cell debris. Then, the medium supernatant was mixed with equal volume of substrate/enzyme mixture included in the kit (lactate, NAD+, diaphorase and iodonitro-tetrazolium violet), followed by incubation at room temperature for 15 minutes before the addition of acetic acid to cease the reaction. The absorbance was read at 490 nm in a 96-well plate reader. […] Cell viability assay was performed using CellTiter-Glo assay.

Assay [2] concerns SH-SY5Y cells. The assay can be described thus: Mitochondrial membrane potential (TMRE). The assay is classed as cell-based, human. The note with it: hydralazine 0, 10, 20 μM; isoniazid 20 μM. As to the method:
Cells were stained by TMRE to tag active mitochondria. Florescence signal was quantified by Flow Jo software. […] ATP levels were measured by bioluminescent detection of luciferase activity. All data are presented normalized to cell number.
The mitochondrial membrane potential was measured as an indicator of cellular energetics and ATP content.

For another assay, the system named is C. elegans. Briefly: Rotenone stress test in worms. The assay is classed as in vivo. The note with it: in vivo. The source says: The inventors again used rotenone to elicit PD-like changes.
Rotenone stress test. […] After 3 days young adult worms were transferred to fresh NGM plates either preloaded with rotenone alone or rotenone plus any of the abovementioned compounds. Every worm was subjected to prodding test with a worm pick every day. A worm was scored as dead when not responding to three repeated proddings. Survival curve was plotted using Prism 7.

The next assay concerns Nrf2. The following applies: SH-SY5Y, 5 μM sulforaphane. As to the method:
The inventors quantified Nrf2 protein in treated cells as a first step towards validating the prediction of the Nrf2 pathway.
Nrf2 phosphorylation on serine 40 is a regulatory modification required for Nrf2 translocation to nucleus and downstream protein activation.
Western Blot Analysis. Protein expression was determined by Western blot analysis. Equal amount of protein from each sample was run in Tris-glycine SDS PAGE gel, followed by transferring to PVDF membrane. After blocking the membrane with 5% milk for 1 hour at room temperature, the membrane was incubated further for 2 hours with antibodies specific for target proteins: Nrf2, pNrf2(S40) from Novus (Littleton, Colo.); Keap1, HO-1, NQO1, GCLc, GCLm and lamin B1 from Cell Signaling (Danvers, Mass.); GAPDH from Santa Cruz (Dallas, Tex.); β-Actin from Thermo Fisher (Waltham, Mass.). The membrane was subsequently incubated with species-specific HRP-conjugated secondary antibody followed by incubation with chemiluminescence substrate and imaging. The band intensity of each of the target proteins was quantified using ImageQuant software (GE Healthcare, Sweden). Western blot analysis on worm lystaes was done similarly. […] Equal amounts of protein were run on the gel and SKN-1 protein level was detected using anti-GFP antibody.
Cell Fractionation. Nuclear and cytoplasmic fractions were separated using the protocol and NE-PER Nuclear and Cytoplasmic Extraction Reagents provided by […]. Briefly, the cells were harvested and washed with ice-cold PBS buffer. The cells were resuspended in ice-cold CER-I buffer and incubated on ice for 10 minutes, followed by addition of CER-II buffer and incubation for one more minute on ice. The lysate was centrifuged at 16,000 g for 5 minutes. The supernatant was the cytoplasmic fraction. The pellet obtained was lysed in ice-cold NER buffer to obtain nuclear protein fractions.

Entries after “also recorded” stand apart in the source; their conditions may differ.

By EC50 is commonly meant the concentration at which the effect is half-maximal.

For `CN(C)Nc1nncc2ccccc12`, in the assay on SH-SY5Y cells [1], the EC50 was no less than 50 µM. `NNc1nnc(Cl)c2ccccc12` [1-Chloro-4-hydrazinyl-phthalazine, 1-Chloro-4-hydrazinylphthalazine] displayed an EC50 in the assay with SH-SY5Y cells [1] of no less than 20 µM.

In the assay on SH-SY5Y cells [1], `C#CCOc1nnc(NN)c2ccccc12` [1-Hydrazinyl-4-(prop-2-yn-1-yloxy)phthalazine] displayed a half-maximal effective concentration (EC50) of 4.32 µM. This counts as single-digit micromolar. Same read-out and setting: as for `Oc1nnc(Cl)c2ccccc12` [4-Chlorophthalazin-1-ol], the figure is no less than 20 µM.

In turn, `NNc1nnc(O)c2ccccc12` [4-Hydrazinylphthalazin-1-ol, 4-Hydrazinylphthalazin-1-ol] had an EC50 in the assay on SH-SY5Y cells [1] of no less than 10 µM. As to `Cc1nc2c3ccccc3c(NN)nn2n1` [6-Hydrazinyl-2-methyl-[1,2,4]triazolo[5,1-a]phthalazine], in the assay on SH-SY5Y cells [1], the concentration giving a half-maximal response (EC50) is no less than 50 µM. For `NNC(=O)c1ccncc1` [Isonicotinohydrazide], the “mitochondrial membrane potential / mitochondrial function (TMRE)” value with SH-SY5Y cells [2] is recorded as “did not have a positive effects on mitochondrial function”. Also, the EC50 in the assay with SH-SY5Y cells [1] is no less than 50 µM. `[Cl-].[Na+]` [NaCl]: in the assay with C. elegans, the “protection against rotenone-induced death” value is recorded as “No protection; also recorded: did not protect worms”. For the molecule `O=c1[nH]ncc2ccccc12` [Phthalazin-1(2H)-one], the EC50 in the assay on SH-SY5Y cells [1] was no less than 50 µM. With `C[S+]([O-])CCCCN=C=S` (centres unmarked) [sulforaphane], in the assay on Nrf2, the “phosphorylation and nuclear localization of Nrf2 (positive control)” value was “caused similar changes”.
